Molecular target: T1, PalQ (Paenibacillus alvei, UniProt A0ABT4H1V4)
T1 construct: gene M5X12_20665; homodimer by size exclusion chromatography
T1 sequence (A0ABT4H1V4 1-312): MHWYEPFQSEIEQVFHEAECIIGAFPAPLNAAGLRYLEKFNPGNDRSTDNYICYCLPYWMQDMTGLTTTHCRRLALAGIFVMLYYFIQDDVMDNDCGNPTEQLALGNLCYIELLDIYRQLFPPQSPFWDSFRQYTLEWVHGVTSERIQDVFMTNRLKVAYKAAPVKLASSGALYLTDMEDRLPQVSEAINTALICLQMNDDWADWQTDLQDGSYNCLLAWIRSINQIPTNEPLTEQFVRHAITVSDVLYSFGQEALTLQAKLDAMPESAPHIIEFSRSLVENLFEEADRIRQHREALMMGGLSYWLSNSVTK
Assay: prenylation kinetics, Michaelis-Menten curve
Assay type: biochemical
Details: acceptor PalX; curve without saturation, poor water solubility

CC(C)=CCC/C(C)=C/CC/C(C)=C/COP(=O)(O)OP(=O)(O)O [FPP]
prenylation kinetics, Michaelis-Menten curve: We then assessed the kinetics of PalQ for DMAPP, GPP, and FPP.

CC(C)=CCC/C(C)=C/COP(=O)(O)OP(=O)(O)O [GPP]
prenylation kinetics, Michaelis-Menten curve: We then assessed the kinetics of PalQ for DMAPP, GPP, and FPP.
